Assay results taken from US10851083B2, “Benzoimidazoles as prolyl hydroxylase inhibitors” (Janssen Pharmaceutica NV, priority 2008, dated 2020).

Columns and labels:
human PHD2181-417 = human PHD2181-417 (Homo sapiens (Human), UniProt Q9GZT9); assay: PHD2 enzyme activity assay ([14C]-succinic acid production); assay type: biochemical; conditions: PHD2181-417 polypeptide, HIF-1α peptide 10 μM, [5-14C]-2-oxoglutaric acid, 30 min pre-incubation, tested 10 μM to 3 nM; for IC50: read-out: Enzyme pIC50 (converted);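 as to all read-outs here: reaction ran 10 min with compound in Tris pH 7.5 buffer with catalase, DTT and ascorbate, labelled succinate freed of leftover 2-oxoglutarate by DNP precipitation, then beta counted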
Hep-3B cells = assay: Cellular assay: EPO secretion in Hep-3B cells; assay type: cell-based, human; design: EPO secretion, % of control compound: dose or concentration left out as unconfirmed; conditions: 24 h, EPO secretion as percentage of control compound 7-[(4-Chloro-phenyl)-(5-methyl-isoxazol-3-ylamino)-methyl]-quinolin-8-ol; for EPO secretion, % of control compound: Homo sapiens, Hep3B, read-out: Cellular % EPO Stimulation; for Cellular % EPO Stimulation: compound at 100 μM (10 μM or 100 μM)

Sequence of human PHD2181-417 (Q9GZT9 181-417): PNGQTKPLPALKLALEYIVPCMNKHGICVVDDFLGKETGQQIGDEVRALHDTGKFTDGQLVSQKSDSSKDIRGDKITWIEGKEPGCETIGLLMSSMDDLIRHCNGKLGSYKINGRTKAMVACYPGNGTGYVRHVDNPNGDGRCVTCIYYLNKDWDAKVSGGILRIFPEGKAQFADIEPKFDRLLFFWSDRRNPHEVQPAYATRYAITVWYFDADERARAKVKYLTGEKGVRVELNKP

O=C(O)c1cnn(-c2nc3cc(Cl)c(Cl)cc3[nH]2)c1 [Example 2, 1-(5,6-Dichloro-1H-benzoimidazol-2-yl)-1H-pyrazole-4-carboxylic Acid]
Enzyme pIC50 (human PHD2181-417): 6.9
EPO secretion, % of control compound (Hep-3B cells): 152%

O=C(O)c1cn(-c2nc3cc(Cl)c(Cl)cc3[nH]2)nc1C(F)(F)F [Example 20, 1-(5,6-dichloro-1H-benzoimidazol-2-yl)-3-trifluoromethyl-1H-pyrazole-4-carboxylic Acid]
IC50 (human PHD2181-417): > 100 µM
Cellular % EPO Stimulation (Hep-3B cells): 18.81%

Cc1nn(-c2nc3cc(Cl)c(Cl)cc3[nH]2)c(C)c1C(=O)O [Example 22, 1-(5,6-Dichloro-1H-benzoimidazol-2-yl)-3,5-dimethyl-1H-pyrazole-4-carboxylic Acid]
IC50 (human PHD2181-417): > 100 µM
Cellular % EPO Stimulation (Hep-3B cells): 0.47%

O=C(O)c1cnn(-c2nc3c(Cl)cccc3[nH]2)c1 [Example 27, 1-(4-Chloro-1H-benzoimidazol-2-yl)-1H-pyrazole-4-carboxylic Acid]
Enzyme pIC50 (human PHD2181-417): 6.1
EPO secretion, % of control compound (Hep-3B cells): 19.1%

O=C(O)c1cnn(-c2nc3cc(Cl)cc(C(F)(F)F)c3[nH]2)c1 [Example 28, 1-(5-Chloro-7-trifluoromethyl-1H-benzoimidazol-2-yl)-1H-pyrazole-4-carboxylic Acid]
Enzyme pIC50 (human PHD2181-417): 6.4
EPO secretion, % of control compound (Hep-3B cells): 16.6%

O=C(O)c1cnn(-c2nc3c(F)c(F)c(F)cc3[nH]2)c1 [Example 31, 1-(4,5,6-Trifluoro-1H-benzoimidazol-2-yl)-1H-pyrazole-4-carboxylic Acid]
Enzyme pIC50 (human PHD2181-417): 7
EPO secretion, % of control compound (Hep-3B cells): 18.2%

O=C(O)c1cnn(-c2nc3c(Br)c(F)c(F)cc3[nH]2)c1 [Example 32, 1-(4-Bromo-5,6-difluoro-1H-benzoimidazol-2-yl)-1H-pyrazole-4-carboxylic Acid]
Enzyme pIC50 (human PHD2181-417): 6.7
EPO secretion, % of control compound (Hep-3B cells): 33%

Cc1cc(Cl)cc2[nH]c(-n3cc(C(=O)O)cn3)nc12 [Example 33, 1-(6-Chloro-4-methyl-1H-benzoimidazol-2-yl)-1H-pyrazole-4-carboxylic Acid]
Enzyme pIC50 (human PHD2181-417): 6
EPO secretion, % of control compound (Hep-3B cells): 13.4%

O=C(O)c1cnn(-c2nc3c(Cl)cc(Cl)cc3[nH]2)c1 [Example 34, 1-(4,6-Dichloro-1H-benzoimidazol-2-yl)-1H-pyrazole-4-carboxylic Acid]
Enzyme pIC50 (human PHD2181-417): 6.5
EPO secretion, % of control compound (Hep-3B cells): 56.3%

O=C(O)c1cnn(-c2nc3c(Br)cc(C(F)(F)F)cc3[nH]2)c1 [Example 35, 1-(4-Bromo-6-trifluoromethyl-1H-benzoimidazol-2-yl)-1H-pyrazole-4-carboxylic Acid]
Enzyme pIC50 (human PHD2181-417): 6.8
EPO secretion, % of control compound (Hep-3B cells): 29.7%

O=C(O)c1cnn(-c2nc3cc(F)c(F)cc3[nH]2)c1 [Example 36, 1-(5,6-Difluoro-1H-benzoimidazol-2-yl)-1H-pyrazole-4-carboxylic Acid]
Enzyme pIC50 (human PHD2181-417): 6.6
EPO secretion, % of control compound (Hep-3B cells): 79.4%

O=C(O)c1cnn(-c2nc3c(Br)cc(Cl)cc3[nH]2)c1 [Example 37, 1-(4-Bromo-6-chloro-1H-benzoimidazol-2-yl)-1H-pyrazole-4-carboxylic Acid]
Enzyme pIC50 (human PHD2181-417): 6.6
EPO secretion, % of control compound (Hep-3B cells): 34%

CS(=O)(=O)c1ccc2nc(-n3cc(C(=O)O)cn3)[nH]c2c1 [Example 38, 1-(6-Methanesulfonyl-1H-benzoimidazol-2-yl)-1H-pyrazole-4-carboxylic Acid]
Enzyme pIC50 (human PHD2181-417): 7.1
EPO secretion, % of control compound (Hep-3B cells): 40.9%

N#Cc1cc2nc(-n3cc(C(=O)O)cn3)[nH]c2cc1Cl [Example 39, 1-(6-Chloro-5-cyano-1H-benzoimidazol-2-yl)-1H-pyrazole-4-carboxylic Acid]
Enzyme pIC50 (human PHD2181-417): 7.4
EPO secretion, % of control compound (Hep-3B cells): 29.9%

O=C(O)c1cnn(-c2nc3cc([N+](=O)[O-])c(Cl)cc3[nH]2)c1 [Example 40, 1-(6-Chloro-5-nitro-1H-benzoimidazol-2-yl)-1H-pyrazole-4-carboxylic Acid]
Enzyme pIC50 (human PHD2181-417): 7.5
EPO secretion, % of control compound (Hep-3B cells): 93.4%

Nc1cc2nc(-n3cc(C(=O)O)cn3)[nH]c2cc1Cl [Example 41, 1-(5-Amino-6-chloro-1H-benzoimidazol-2-yl)-1H-pyrazole-4-carboxylic Acid]
Enzyme pIC50 (human PHD2181-417): 6.4
EPO secretion, % of control compound (Hep-3B cells): 30%

O=C(O)c1cnn(-c2nc3cc(F)ccc3[nH]2)c1 [Example 42, 1-(5-Fluoro-1H-benzoimidazol-2-yl)-1H-pyrazole-4-carboxylic Acid]
Enzyme pIC50 (human PHD2181-417): 6.3
EPO secretion, % of control compound (Hep-3B cells): 33.8%

O=C(O)c1cnn(-c2nc3cc(N4CCCC4)c(Cl)cc3[nH]2)c1 [Example 43, 1-(6-Chloro-5-pyrrolidin-1-yl-1H-benzoimidazol-2-yl)-1H-pyrazole-4-carboxylic Acid]
Enzyme pIC50 (human PHD2181-417): 6.7
EPO secretion, % of control compound (Hep-3B cells): 178%

O=C(O)c1cnn(-c2nc3cc(N4CCCCC4)c(Cl)cc3[nH]2)c1 [Example 44, 1-(6-Chloro-5-piperidin-1-yl-1H-benzoimidazol-2-yl)-1H-pyrazole-4-carboxylic Acid]
Enzyme pIC50 (human PHD2181-417): 6.7
EPO secretion, % of control compound (Hep-3B cells): 139%

O=C(O)c1cnn(-c2nc3cc(N4CCOCC4)c(Cl)cc3[nH]2)c1 [Example 45, 1-(6-Chloro-5-morpholin-4-yl-1H-benzoimidazol-2-yl)-1H-pyrazole-4-carboxylic Acid]
Enzyme pIC50 (human PHD2181-417): 6.6
EPO secretion, % of control compound (Hep-3B cells): 30.9%

COc1cc2[nH]c(-n3cc(C(=O)O)cn3)nc2cc1Cl [Example 46, 1-(6-Chloro-5-methoxy-1H-benzoimidazol-2-yl)-1H-pyrazole-4-carboxylic Acid]
Enzyme pIC50 (human PHD2181-417): 6.5
EPO secretion, % of control compound (Hep-3B cells): 76%

O=C(O)c1ccc2[nH]c(-n3cc(C(=O)O)cn3)nc2c1 [Example 47, 2-(4-Carboxy-pyrazol-1-yl)-1H-benzoimidazole-5-carboxylic Acid]
Enzyme pIC50 (human PHD2181-417): 6.6
EPO secretion, % of control compound (Hep-3B cells): 11%

O=C(O)c1cnn(-c2nc3cc(Br)cc(F)c3[nH]2)c1 [Example 48, 1-(5-Bromo-7-fluoro-1H-benzoimidazol-2-yl)-1H-pyrazole-4-carboxylic Acid]
Enzyme pIC50 (human PHD2181-417): 6.3
EPO secretion, % of control compound (Hep-3B cells): 44%

Cc1cc(Br)cc2nc(-n3cc(C(=O)O)cn3)[nH]c12 [Example 49, 1-(5-Bromo-7-methyl-1H-benzoimidazol-2-yl)-1H-pyrazole-4-carboxylic Acid]
Enzyme pIC50 (human PHD2181-417): 6.1
EPO secretion, % of control compound (Hep-3B cells): 24%

O=C(O)c1cnn(-c2nc3cc(Oc4ccc(Cl)c(Cl)c4)c(C(F)(F)F)cc3[nH]2)c1 [Example 50, 1-[5-(3,4-Dichloro-phenoxy)-6-trifluoromethyl-1H-benzoimidazol-2-yl]-1H-pyrazole-4-carboxylic Acid]
Enzyme pIC50 (human PHD2181-417): 7.4
EPO secretion, % of control compound (Hep-3B cells): 18%

O=C(O)c1cnn(-c2nc3cc(Oc4ccc(Cl)cc4)c(Cl)cc3[nH]2)c1 [Example 51, 1-[6-Chloro-5-(4-chloro-phenoxy)-1H-benzoimidazol-2-yl]-1H-pyrazole-4-carboxylic Acid]
Enzyme pIC50 (human PHD2181-417): 7.4
EPO secretion, % of control compound (Hep-3B cells): 150%

O=C(O)c1cnn(-c2nc3cc(Oc4ccc(Cl)cc4)c(OC(F)(F)F)cc3[nH]2)c1 [Example 52, 1-[5-(4-Chloro-phenoxy)-6-trifluoromethoxy-1H-benzoimidazol-2-yl]-1H-pyrazole-4-carboxylic Acid]
Enzyme pIC50 (human PHD2181-417): 7.4
EPO secretion, % of control compound (Hep-3B cells): 21.6%

O=C(O)c1cnn(-c2nc3cc(Oc4ccccc4)c(OC(F)(F)F)cc3[nH]2)c1 [Example 53, 1-(5-Phenoxy-6-trifluoromethoxy-1H-benzoimidazol-2-yl)-1H-pyrazole-4-carboxylic Acid]
Enzyme pIC50 (human PHD2181-417): 7.2
EPO secretion, % of control compound (Hep-3B cells): 138%

O=C(O)c1cnn(-c2nc3cc(Oc4ccc(F)cc4)c(C(F)(F)F)cc3[nH]2)c1 [Example 54, 1-[5-(4-Fluoro-phenoxy)-6-trifluoromethyl-1H-benzoimidazol-2-yl]-1H-pyrazole-4-carboxylic Acid]
Enzyme pIC50 (human PHD2181-417): 7.3
EPO secretion, % of control compound (Hep-3B cells): 75.5%

N#Cc1ccccc1-c1ccc(CSc2cc3nc(-n4cc(C(=O)O)cn4)[nH]c3cc2Cl)cc1 [Example 172, 1-[6-Chloro-5-(2′-cyano-biphenyl-4-ylmethylsulfanyl)-1H-benzoimidazol-2-yl]-1H-pyrazole-4-carboxylic Acid]
Enzyme pIC50 (human PHD2181-417): 7.5

Cc1ccc(CS(=O)(=O)c2cc3nc(-n4cc(C(=O)O)cn4)[nH]c3cc2Cl)cc1 [Example 178, 1-(6-Chloro-5-p-tolylmethanesulfonyl-1H-benzoimidazol-2-yl)-1H-pyrazole-4-carboxylic Acid]
Enzyme pIC50 (human PHD2181-417): 7.7

O=C(O)c1cnn(-c2nc3cc(S(=O)(=O)Cc4ccc(C(F)(F)F)cc4)c(Cl)cc3[nH]2)c1 [Example 179, 1-[6-Chloro-5-(4-trifluoromethyl-phenylmethanesulfonyl)-1H-benzoimidazol-2-yl]-1H-pyrazole-4-carboxylic Acid]
Enzyme pIC50 (human PHD2181-417): 7.7

O=C(O)c1cnn(-c2nc3cc(S(=O)(=O)Cc4ccc(C(F)(F)F)cc4C(F)(F)F)c(Cl)cc3[nH]2)c1 [Example 180, 1-[5-(2,4-Bis-trifluoromethyl-phenylmethanesulfonyl)-6-chloro-1H-benzoimidazol-2-yl]-1H-pyrazole-4-carboxylic Acid]
Enzyme pIC50 (human PHD2181-417): 7.6

N#Cc1ccccc1-c1ccc(CS(=O)(=O)c2cc3nc(-n4cc(C(=O)O)cn4)[nH]c3cc2Cl)cc1 [Example 181, 1-[6-Chloro-5-(2′-cyano-biphenyl-4-ylmethanesulfonyl)-1H-benzoimidazol-2-yl]-1H-pyrazole-4-carboxylic Acid]
Enzyme pIC50 (human PHD2181-417): 7.7
